Source: US20170044230A1 (USTAV ORGANICKE CHEMIE A BIOCHEMIE AV CR, V.V.I., priority 2014, published 2017)
“Also recorded” adds a separate entry of the source.

Key:
human GHS-R1a receptor = target: T1, human GHS-R1a receptor (Homo sapiens, UniProt Q92847); assay: Competitive binding studies (displacement of 125I-ghrelin); settings: relative to ghrelin = 100
T1 construct: purchased Multispan, Hayward, Calif., USA; host or cells: HEK293T cells, isolated plasma membranes
Description: Isolated plasma membranes from the HEK293T cells with transfected human GHS-R1a receptor (Multispan, Hayward, Calif., USA) were used. […] Experiments were carried out in duplicates at least three times. Competitive binding curves were plotted using GraphPad Prism Software (San Diego, Calif., USA) while comparing the best fit for single binding sites models.

fed C57BL/6 male mice = assay: Effect of SC administered ghrelin analogs on food intake; type: in vivo
In short: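 Food-withdrawn male C57BL/6 mice, dosed SC, received preweighed chow 15 min after injection; intake recorded every 30 min for 8-10 hours, ≥5 mice/group. ED50 = dose giving half-maximal effect at 250 min; maximal effect taken at 480 min after 5 mg/kg.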

[1] = Pharmacokinetics in vivo after SC administration to mice; settings: SC 5 mg/kg
Description: Mice were housed at a temperature 22±2° C. under a daily cycle of 12/12 h light/dark (light from 6:00) with free access to water and a standard chow diet St-1 (Mlýn Kocanda, Praha, Czech Republic).
4, 6, 14 and 18 at a dose of 5 mg/kg of body weight (0.2 ml/mouse, n=4). Blood was collected from tails before injection and 0.5, 1, 2, 4, 8, 16 and 24 h after injection. Plasma was separated and stored at −20° C.

[2] = tested on: 4-5-week old male C57BL/6 mice; assay: Growth hormone (GH) release after SC administration to young mice; type: in vivo; settings: 10 min after SC 5 mg/kg
Description: 4 and 14 at a dose of 5 mg/kg of body weight (0.2 ml/mouse). 10 min after the injection, blood was collected, plasma was prepared and stored at −20° C. until use. GH levels in the plasma samples were determined by Rat/Mouse Growth Hormone ELISA kit (Merck-Millipore, St. Charles, Mo., USA). Ghrelin analogs no.

[3] = tested on: mouse model of lipopolysaccharide-induced cachexia; assay: Mouse model of lipopolysaccharide-induced cachexia (LPS model); type: in vivo, mice
Description: Male C57BL/6 mice (Charles River, Germany) were housed at a temperature of 22±2° C. under a daily cycle of 12/12 h light/dark (light from 6:00) with free access to water and a standard chow diet St-1 (Mlýn Kocanda, Praha, Czech Republic). One week before the experiment, the mice were placed into separated cages and habituated to an automatic system for food intake monitoring (Developmental workshop IOCB, Prague, Czech Republic). Animals were randomized into two groups, LPS group and control group. At 17:00, the LPS group was injected intraperitoneally (IP) with 100 μg/kg of body weight LPS (Escherichia coli 055:B5 serotype, Sigma) in a volume of 0.2 ml saline. The control group received an IP injection with an equal volume of saline. Food intake was monitored automatically in 10-min intervals. […] 14 (n=4-5 mice per group). Food intake was monitored for another 10 hours.
At the end of the experiment, mice were sacrificed by decapitation, blood was collected, plasma was prepared and stored at −20° C. Hypothalamus was dissected, frozen on dry ice and stored at −80° C., musculus gastrocnemius was dissected, flash-frozen in liquid nitrogen and stored at -80° C. C-reactive protein levels and pro-inflammatory/anti-inflammatory cytokine levels in blood plasma were determined using C-Reactive Protein Mouse ELISA (Biovendor, Bmo, Czech Republic) and Milliplex MAP Rat Cytokine/Chemokine Magnetic Bead Panel (Merck-Millipore, St. Charles, Mo., USA), respectively. Samples of hypothalamus and muscle were homogenized, total RNA was extracted and RNA concentration was determined as previously described (Holubova et al., 2014). Determination of the mRNA expression of genes of interest (MuRFI and MAFbx in muscle, NPY and AgRP in hypothalamus) was performed using an ABI PRISM 7500 instrument (Applied Biosystems, Foster City, Calif., USA). The expression of GAPDH or GUSH was used to compensate for variations in input RNA amounts and the efficiency of reverse transcription, and the modified formula 2-ΔCt was used to calculate the relative gene expression.

[4] = single SC 5 mg/kg after LPS, 5 mg/kg
[5] = single SC administration, LPS model

T1 sequence (Q92847 whole entry): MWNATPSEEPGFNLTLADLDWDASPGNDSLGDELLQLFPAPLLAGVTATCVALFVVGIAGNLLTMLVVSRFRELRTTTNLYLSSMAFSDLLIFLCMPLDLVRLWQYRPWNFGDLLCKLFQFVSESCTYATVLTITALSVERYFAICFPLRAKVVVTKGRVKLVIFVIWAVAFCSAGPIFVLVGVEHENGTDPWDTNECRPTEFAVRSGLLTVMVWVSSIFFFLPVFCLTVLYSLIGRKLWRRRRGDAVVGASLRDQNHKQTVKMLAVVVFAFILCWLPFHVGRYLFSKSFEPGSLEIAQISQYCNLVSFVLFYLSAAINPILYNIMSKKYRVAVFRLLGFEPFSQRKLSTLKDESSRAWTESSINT

% of ghrelin binding (human GHS-R1a receptor): 7% | half-life ([1]; male, C57BL/6, mouse, plasma): 5 h
Structure (SMILES): CCCCCCCCCCCCCC(=O)NC[C@H](NC(=O)[C@H](CO)NC(=O)CNC)C(=O)N[C@@H](Cc1ccc(Cl)c(Cl)c1)C(=O)N[C@@H](CC(C)C)C(=O)N[C@@H](CO)C(=O)N1CCC[C@H]1C(=O)N[C@@H](CCC(=O)O)C(=O)N[C@@H](Cc1c[nH]cn1)C(=O)N[C@@H](CCC(N)=O)C(=O)N[C@@H](CCCCN)C(=O)N[C@@H](C)C(=O)N[C@@H](CCC(N)=O)C(=O)N[C@@H](CCC(N)=O)C(=O)N[C@@H](CCCNC(=N)N)C(=O)N[C@@H](CCCCN)C(=O)N[C@@H](CCC(=O)O)C(=O)N[C@@H](CO)C(=O)N[C@@H](CCCCN)C(=O)N[C@@H](CCCCN)C(=O)N1CCC[C@H]1C(=O)N1CCC[C@H]1C(=O)N[C@@H](C)C(=O)N[C@@H](CCCCN)C(=O)N[C@@H](CC(C)C)C(=O)N[C@@H](CCC(N)=O)C(=O)N1CCC[C@H]1C(=O)N[C@@H](CCCNC(=N)N)C(=O)O [Analog 14]
maximal effect at 5 mg/kg on food intake (fed C57BL/6 male mice; SC 5 mg/kg, evaluated 480 min after administration): 235.5 % of Dpr^3ghr | ED50 (250 min after injection), effect on food intake (fed C57BL/6 male mice; SC, fed mice, 250 min after injection): 0.65 mg/kg | stability in vivo compared with ghrelin or Dpr^3ghrelin [1]: significantly more stable than ghrelin or Dpr^3ghrelin | GH levels in plasma [2]: did not alter the GH levels | levels of C-reactive protein ([3]; single SC 5 mg/kg after LPS): tended to normalize levels of C-reactive protein | levels of pro-inflammatory cytokine IL-2 ([3]; single SC 5 mg/kg after LPS): normalized levels of pro-inflammatory cytokine IL-2 | food intake ([3]; single SC 5 mg/kg after LPS, monitored 10 hours, 5 mg/kg): significant increase in food intake; also recorded: increased food intake | expression of mRNA for orexigenic neuropeptides NPY and AgRP in hypothalamus [3, 4]: significantly increased expression of mRNA; also recorded: increased expression of orexigenic neuropeptides in the hypothalamus | mRNA expression for markers of muscle degradation MuRF-1 and MAFbx [3, 4]: tended to decrease mRNA expression; also recorded: tended to decrease expression of markers of muscle degradation | cachectic state [3, 5]: improved the cachectic state | plasmatic levels of pro-inflammatory cytokines [3, 5]: reduced plasmatic levels of pro-inflammatory cytokines
